According to patent US9487516B2, “Antibacterial oxadiazolone derivatives” (priority 2013, dated 2016):
Converted amounts (≈) assume the structure as drawn.

Experiments:
Assay in all cases: Bacterial growth minimal inhibitory concentration (microdilution, cation-adjusted Mueller-Hinton Broth)
Format in all cases: cell-based
[1] = tested on: Moraxella catarrhalis A894; details: quinolone-sensitive strain
Procedure: (§1) Minimal Inhibitory Concentrations (MICs; mg/L) were determined in cation-adjusted MuellerHinton Broth by a microdilution method following the description given in “Methods for Dilution Antimicrobial Susceptibility Tests for Bacteria that Grow Aerobically”, Approved standard, 7th ed., Clinical and Laboratory Standards Institute (CLSI) Document M7-A7, Wayne, Pa., USA, 2006.
(§2) All Example compounds were tested against several Gram positive and Gram negative bacteria. […] Staphylococcus aureus A798, Enterococcus faecium A949 and Acinetobacter baumanii T6474 are multiply-resistant strains (in particular quinolone-resistant), while Moraxella catarrhalis A894 is a quinolone-sensitive strain and Staphylococcus aureus ATCC29213 is a methicillin-sensitive and quinolone-sensitive strain.

[2] = tested on: Staphylococcus aureus A798; details: multiply-resistant strain (in particular quinolone-resistant), read-out: MIC for S. aureus A798
Procedure: as §1, §2

[3] = tested on: Staphylococcus aureus ATCC29213; details: methicillin-sensitive and quinolone-sensitive strain, read-out: MIC for S. aureus ATCC29213
Procedure: as §1, §2

[4] = tested on: Acinetobacter baumanii T6474; details: Acinetobacter baumannii, multiply-resistant strain (in particular quinolone-resistant)
Procedure: as §1, §2

[5] = tested on: Enterococcus faecium A949; details: multiply-resistant strain (in particular quinolone-resistant), read-out: MIC for E. faecium A949
Procedure: as §1, §2

| MIC [1] | MIC [2] | MIC [3] | MIC [4] | MIC [5] | Compound |
| --- | --- | --- | --- | --- | --- |
| 2 µg/mL (≈ 4.46 µM) | 2 µg/mL (≈ 4.46 µM) | 0.25 µg/mL (≈ 0.557 µM) | > 8 µg/mL | 1 µg/mL (≈ 2.23 µM) | CCCc1ccc(-n2nc(CCCN[C@@H]3Cn4c(=O)ccc5ccc(F)c3c54)oc2=O)cc1 [Example 1, (S)-9-fluoro-1-{3-[5-oxo-4-(4-propyl-phenyl)-4,5-dihydro-[1,3,4]oxadiazol-2-yl]-propylamino}-1,2-dihydro-pyrrolo[3,2,1-ij]quinolin-4-one] |
| 2 µg/mL (≈ 4.45 µM) | 0.5 µg/mL (≈ 1.11 µM) | 0.125 µg/mL (≈ 0.278 µM) | > 8 µg/mL | 1 µg/mL (≈ 2.22 µM) | CCCc1ccc(-n2nc(CCCN[C@H]3Cn4c(=O)cnc5ccc(F)c3c54)oc2=O)cc1 [Example 2, (R)-7-fluoro-6-{3-[5-oxo-4-(4-propyl-phenyl)-4,5-dihydro-[1,3,4]oxadiazol-2-yl]-propylamino}-5,6-dihydro-pyrrolo[1,2,3-de]quinoxalin-3-one] |
| 2 µg/mL (≈ 4.46 µM) | 0.25 µg/mL (≈ 0.557 µM) | 0.063 µg/mL (≈ 0.14 µM) | > 8 µg/mL | 0.25 µg/mL (≈ 0.557 µM) | CC(C)c1ccc(-n2nc(CCCN[C@@H]3Cn4c(=O)ccc5ccc(F)c3c54)oc2=O)cc1 [Example 3, (S)-9-fluoro-1-{3-[4-(4-isopropyl-phenyl)-5-oxo-4,5-dihydro-[1,3,4]oxadiazol-2-yl]-propylamino}-1,2-dihydro-pyrrolo[3,2,1-ij]quinolin-4-one] |
| 0.5 µg/mL (≈ 1.07 µM) | 0.5 µg/mL (≈ 1.07 µM) | 0.063 µg/mL (≈ 0.135 µM) | 8 µg/mL (≈ 17.1 µM) | 0.5 µg/mL (≈ 1.07 µM) | CCSc1ccc(-n2nc(CCCN[C@@H]3Cn4c(=O)ccc5ccc(F)c3c54)oc2=O)cc1 [Example 4, (S)-1-{3-[4-(4-ethylsulfanyl-phenyl)-5-oxo-4,5-dihydro-[1,3,4]oxadiazol-2-yl]-propylamino}-9-fluoro-1,2-dihydro-pyrrolo[3,2,1-ij]quinolin-4-one] |
| 0.25 µg/mL (≈ 0.535 µM) | 0.063 µg/mL (≈ 0.135 µM) | 0.031 µg/mL (≈ 0.0663 µM) | 4 µg/mL (≈ 8.56 µM) | 0.5 µg/mL (≈ 1.07 µM) | CCSc1ccc(-n2nc(CCCN[C@H]3Cn4c(=O)cnc5ccc(F)c3c54)oc2=O)cc1 [Example 5, (R)-6-{3-[4-(4-ethylsulfanyl-phenyl)-5-oxo-4,5-dihydro-[1,3,4]oxadiazol-2-yl]-propylamino}-7-fluoro-5,6-dihydro-pyrrolo[1,2,3-de]quinoxalin-3-one] |
| 0.5 µg/mL (≈ 1.04 µM) | 0.5 µg/mL (≈ 1.04 µM) | 0.5 µg/mL (≈ 1.04 µM) | 2 µg/mL (≈ 4.17 µM) | 2 µg/mL (≈ 4.17 µM) | O=C1COc2ccc(-n3nc(CCCN[C@H]4Cn5c(=O)cnc6ccc(F)c4c65)oc3=O)nc2N1 [Example 6, (R)-7-fluoro-6-{3-[5-oxo-4-(3-oxo-3,4-dihydro-2H-pyrido[3,2-b][1,4]oxazin-6-yl)-4,5-dihydro-[1,3,4]oxadiazol-2-yl]-propylamino}-5,6-dihydro-pyrrolo[1,2,3-de]quinoxalin-3-one] |
| 0.25 µg/mL (≈ 0.521 µM) | 0.5 µg/mL (≈ 1.04 µM) | 0.25 µg/mL (≈ 0.521 µM) | 2 µg/mL (≈ 4.17 µM) | 2 µg/mL (≈ 4.17 µM) | O=C1COc2ccc(-n3nc(CCCN[C@@H]4Cn5c(=O)cnc6ccc(F)c4c65)oc3=O)nc2N1 [Example 7, (S)-7-fluoro-6-{3-[5-oxo-4-(3-oxo-3,4-dihydro-2H-pyrido[3,2-b][1,4]oxazin-6-yl)-4,5-dihydro-[1,3,4]oxadiazol-2-yl]-propylamino}-5,6-dihydro-pyrrolo[1,2,3-de]quinoxalin-3-one] |
| 0.125 µg/mL (≈ 0.261 µM) | 0.25 µg/mL (≈ 0.523 µM) | 0.125 µg/mL (≈ 0.261 µM) | 0.5 µg/mL (≈ 1.05 µM) | 0.5 µg/mL (≈ 1.05 µM) | O=C1COc2ccc(-n3nc(CCCN[C@@H]4Cn5c(=O)ccc6ccc(F)c4c65)oc3=O)nc2N1 [Example 8, (S)-9-fluoro-1-{3-[5-oxo-4-(3-oxo-3,4-dihydro-2H-pyrido[3,2-b][1,4]oxazin-6-yl)-4,5-dihydro-[1,3,4]oxadiazol-2-yl]-propylamino}-1,2-dihydro-pyrrolo[3,2,1-ij]quinolin-4-one] |
| 0.125 µg/mL (≈ 0.261 µM) | 0.25 µg/mL (≈ 0.523 µM) | 0.125 µg/mL (≈ 0.261 µM) | 1 µg/mL (≈ 2.09 µM) | 0.5 µg/mL (≈ 1.05 µM) | O=C1COc2ccc(-n3nc(CCCN[C@H]4Cn5c(=O)ccc6ccc(F)c4c65)oc3=O)nc2N1 [Example 9, (R)-9-fluoro-1-{3-[5-oxo-4-(3-oxo-3,4-dihydro-2H-pyrido[3,2-b][1,4]oxazin-6-yl)-4,5-dihydro-[1,3,4]oxadiazol-2-yl]-propylamino}-1,2-dihydro-pyrrolo[3,2,1-ij]quinolin-4-one] |
| ≤ 0.016 µg/mL | 0.063 µg/mL (≈ 0.132 µM) | 0.031 µg/mL (≈ 0.0648 µM) | 0.25 µg/mL (≈ 0.523 µM) | 0.5 µg/mL (≈ 1.05 µM) | O=C1COc2ccc(-n3nc(CCCN[C@@H]4Cn5c(=O)cnc6ccc(F)c4c65)oc3=O)cc2N1 [Example 10, (S)-7-fluoro-6-{3-[5-oxo-4-(3-oxo-3,4-dihydro-2H-benzo[1,4]oxazin-6-yl)-4,5-dihydro-[1,3,4]oxadiazol-2-yl]-propylamino}-5,6-dihydro-pyrrolo[1,2,3-de]quinoxalin-3-one] |
| ≤ 0.016 µg/mL | 0.063 µg/mL (≈ 0.132 µM) | 0.031 µg/mL (≈ 0.0649 µM) | 0.25 µg/mL (≈ 0.524 µM) | 0.25 µg/mL (≈ 0.524 µM) | O=C1COc2ccc(-n3nc(CCCN[C@@H]4Cn5c(=O)ccc6ccc(F)c4c65)oc3=O)cc2N1 [Example 11, (S)-9-fluoro-1-{3-[5-oxo-4-(3-oxo-3,4-dihydro-2H-benzo[1,4]oxazin-6-yl)-4,5-dihydro-[1,3,4]oxadiazol-2-yl]-propylamino}-1,2-dihydro-pyrrolo[3,2,1-ij]quinolin-4-one] |
| ≤ 0.016 µg/mL | 0.031 µg/mL (≈ 0.0649 µM) | 0.031 µg/mL (≈ 0.0649 µM) | 0.25 µg/mL (≈ 0.524 µM) | 0.25 µg/mL (≈ 0.524 µM) | O=C1COc2ccc(-n3nc(CCCN[C@H]4Cn5c(=O)ccc6ccc(F)c4c65)oc3=O)cc2N1 [Example 12, (R)-9-fluoro-1-{3-[5-oxo-4-(3-oxo-3,4-dihydro-2H-benzo[1,4]oxazin-6-yl)-4,5-dihydro-[1,3,4]oxadiazol-2-yl]-propylamino}-1,2-dihydro-pyrrolo[3,2,1-ij]quinolin-4-one] |
| ≤ 0.016 µg/mL | 0.031 µg/mL (≈ 0.0648 µM) | 0.031 µg/mL (≈ 0.0648 µM) | 0.25 µg/mL (≈ 0.523 µM) | 0.25 µg/mL (≈ 0.523 µM) | O=C1COc2ccc(-n3nc(CCCN[C@H]4Cn5c(=O)cnc6ccc(F)c4c65)oc3=O)cc2N1 [Example 13, (R)-7-fluoro-6-{3-[5-oxo-4-(3-oxo-3,4-dihydro-2H-benzo[1,4]oxazin-6-yl)-4,5-dihydro-[1,3,4]oxadiazol-2-yl]-propylamino}-5,6-dihydro-pyrrolo[1,2,3-de]quinoxalin-3-one] |
| 0.031 µg/mL (≈ 0.0627 µM) | 0.031 µg/mL (≈ 0.0627 µM) | ≤ 0.016 µg/mL | 0.25 µg/mL (≈ 0.506 µM) | 0.25 µg/mL (≈ 0.506 µM) | O=C1CSc2ccc(-n3nc(CCCN[C@H]4Cn5c(=O)ccc6ccc(F)c4c65)oc3=O)nc2N1 [Example 14, (R)-9-fluoro-1-{3-[5-oxo-4-(3-oxo-3,4-dihydro-2H-pyrido[3,2-b][1,4]-thiazin-6-yl)-4,5-dihydro-[1,3,4]oxadiazol-2-yl]-propylamino}-1,2-dihydro-pyrrolo[3,2,1-ij]quinolin-4-one] |
| ≤ 0.016 µg/mL | ≤ 0.016 µg/mL | ≤ 0.016 µg/mL | 0.125 µg/mL (≈ 0.253 µM) | 0.063 µg/mL (≈ 0.128 µM) | O=C1CSc2ccc(-n3nc(CCCN[C@@H]4Cn5c(=O)ccc6ccc(F)c4c65)oc3=O)cc2N1 [Example 15, (S)-9-fluoro-1-{3-[5-oxo-4-(3-oxo-3,4-dihydro-2H-benzo[1,4]-thiazin-6-yl)-4,5-dihydro-[1,3,4]oxadiazol-2-yl]-propylamino}-1,2-dihydro-pyrrolo[3,2,1-ij]quinolin-4-one] |
| 0.063 µg/mL (≈ 0.127 µM) | 0.063 µg/mL (≈ 0.127 µM) | 0.063 µg/mL (≈ 0.127 µM) | 0.25 µg/mL (≈ 0.505 µM) | 0.25 µg/mL (≈ 0.505 µM) | O=C1CSc2ccc(-n3nc(CCCN[C@H]4Cn5c(=O)cnc6ccc(F)c4c65)oc3=O)nc2N1 [Example 16, (R)-7-fluoro-6-{3-[5-oxo-4-(3-oxo-3,4-dihydro-2H-pyrido[3,2-b][1,4]-thiazin-6-yl)-4,5-dihydro-[1,3,4]oxadiazol-2-yl]-propylamino}-5,6-dihydro-pyrrolo[1,2,3-de]quinoxalin-3-one] |
| 0.031 µg/mL (≈ 0.0627 µM) | 0.063 µg/mL (≈ 0.127 µM) | 0.031 µg/mL (≈ 0.0627 µM) | 0.25 µg/mL (≈ 0.506 µM) | 0.25 µg/mL (≈ 0.506 µM) | O=C1CSc2ccc(-n3nc(CCCN[C@@H]4Cn5c(=O)ccc6ccc(F)c4c65)oc3=O)nc2N1 [Example 17, (S)-9-fluoro-1-{3-[5-oxo-4-(3-oxo-3,4-dihydro-2H-pyrido[3,2-b][1,4]-thiazin-6-yl)-4,5-dihydro-[1,3,4]oxadiazol-2-yl]-propylamino}-1,2-dihydro-pyrrolo[3,2,1-ij]quinolin-4-one] |
| ≤ 0.016 µg/mL | 0.063 µg/mL (≈ 0.127 µM) | 0.031 µg/mL (≈ 0.0626 µM) | 0.25 µg/mL (≈ 0.505 µM) | 0.25 µg/mL (≈ 0.505 µM) | O=C1CSc2ccc(-n3nc(CCCN[C@@H]4Cn5c(=O)cnc6ccc(F)c4c65)oc3=O)nc2N1 [Example 18, (S)-7-fluoro-6-{3-[5-oxo-4-(3-oxo-3,4-dihydro-2H-pyrido[3,2-b][1,4]-thiazin-6-yl)-4,5-dihydro-[1,3,4]oxadiazol-2-yl]-propylamino}-5,6-dihydro-pyrrolo[1,2,3-de]quinoxalin-3-one] |
| 0.031 µg/mL (≈ 0.0628 µM) | ≤ 0.016 µg/mL | ≤ 0.016 µg/mL | ≤ 0.016 µg/mL | 0.25 µg/mL (≈ 0.507 µM) | O=C1CSc2ccc(-n3nc(CCCN[C@H]4Cn5c(=O)ccc6ccc(F)c4c65)oc3=O)cc2N1 [Example 19, (R)-9-fluoro-1-{3-[5-oxo-4-(3-oxo-3,4-dihydro-2H-benzo[1,4]-thiazin-6-yl)-4,5-dihydro-[1,3,4]oxadiazol-2-yl]-propylamino}-1,2-dihydro-pyrrolo[3,2,1-ij]quinolin-4-one] |
